The nature of data set [1]: Single-dosing pharmacokinetics test. Particulars: female, B-hPD-1/hPD-L1 (humanized), mouse, po; humanized mice, single dose of 100 mg/kg by gavage, plasma. The class given is in vivo, B-hPD-1/hPD-L1 female mice. As to the method: 24 6-week old B-hPD-1/hPD-L1 female mice (purchased from Biocytogen (Jiangsu) Gene Biotechnology Co., Ltd.) were taken and the test compound was dissolved in a solvent containing 5% DMSO, 60% PEG400 and 35% purified water. The compound I-6 and three control molecules, Example 17, Compound 14 (INCB086550) and Example 180 were dosed. The compound was administered by gavage in a single dose of 100 mg/kg and blood was collected through fundus vein plexus after administration. The time points for blood collection were 15 min, 30 min, 1 h, 2 h, 4 h, 8 h, 24 h, 32 h and 48 h. About 0.1 mL of blood was collected and centrifuged in a centrifuge tube (heparin sodium anticoagulation) at 5000 rpm for 5 min to separate plasma, and then frozen at −20° C. for testing. After the plasma sample was treated, the concentration of the compound in the plasma was determined by liquid chromatography-mass spectrometry (LC-MS/MS). The pharmacokinetic parameters were calculated using Phoenix WinNonlin 7.0 based on the average blood concentration data at different time points.

A short description of data set [2]: Repeated-dosing pharmacokinetics test. It counts as in vivo, B-hPD-1/hPD-L1 humanized female mice. Particulars: female, B-hPD-1/hPD-L1 (humanized), mouse, po; humanized mice, 50 mg/kg by gavage once a day for 12 days, plasma on day 12. As to the method: 24 6-week old B-hPD-1/hPD-L1 humanized female mice (purchased from Biocytogen (Jiangsu) Gene Biotechnology Co., Ltd.) were taken and the test compound was dissolved in a solvent containing 5% DMSO, 60% PEG400 and 35% purified water. The compound I-6 and three control molecules, Example 17, Compound 14 (INCB086550) and the aforementioned Example 180 were dosed. The compound was administered by gavage once a day in a dose of 50 mg/kg for 12 consecutive days, and blood was alternately collected through fundus vein plexus on day 12 of administration. The time points for blood collection were 15 min, 30 min, 1 h, 2 h, 4 h, 8 h, 24 h, 32 h and 48 h. About 0.1 mL of blood was collected and centrifuged in a centrifuge tube (heparin sodium for anticoagulation) at 5000 rpm for 5 min to separate plasma, and then frozen at −20° C. for testing. The concentration of the compound in the plasma was determined by liquid chromatography-mass spectrometry (LC-MS/MS). The pharmacokinetic parameters were calculated using Phoenix WinNonlin 7.0 based on the average blood concentration data at different time points.

For data set [3] the following is noted: clinical studies; cited from earlier work.

With `Cc1c(Nc2nccc3cc(CN4CC[C@@H](O)C4)cnc23)cccc1-c1cccc(-c2nc3cc(CN4CC[C@@H](C(=O)O)C4)cc(C#N)c3o2)c1C` [Compound 14 (INCB086550)], in data set [1], the AUC(0-t) (as a rule, the area under the concentration-time curve up to a stated or last time point) came out at 19600 ng·h/mL; the MRT (as a rule, a mean duration of stay, worked out from the concentration-time curve) stood at 5.9 h; the half-life (usually the time in which the quantity being followed falls by half) is 3.9 h. In data set [2], this compound showed an AUC(0-t) of 10600 ng·h/mL, an MRT of 5 h and a half-life of 3.7 h.

In data set [1], `Cn1c(C(=O)Nc2cccc(-c3cccc(NC(=O)c4nc5c(n4C)CCN(CCC46CCC(C(=O)O)(CC4)C6)C5)c3Cl)c2Cl)nc2c1CCN(CCC13CCC(C(=O)O)(CC1)C3)C2` [Example 17] showed an AUC(0-t) of 118000 ng·h/mL, an MRT of 4.2 h and a half-life of 3.8 h. Moreover, in data set [2], the AUC(0-t) came to 58800 ng·h/mL, the MRT stood at 4.6 h and the half-life is 3.9 h.

On to atezolizumab: PD-1/PD-L1 antibody drug, for which the “half time T1/2” value in data set [3] was 648 h.

nivolumab: PD-1/PD-L1 antibody drug: the “half time T1/2” value in data set [3] is 605 h.

On to pembrolizumab: PD-1/PD-L1 antibody drug, for which the “half time T1/2” value in data set [3] was 600 h.

These data come from patent publication US20230365590A1, “BIPHENYL COMPOUND AS IMMUNOMODULATOR, PREPARATION METHOD THEREFOR AND APPLICATION THEREOF” (SHENZHEN CHIPSCREEN BIOSCIENCES CO., LTD., priority 2020, published 2023).
